Test results as given in patent publication US20240043404A1 (AbbVie Inc., priority 2009, published 2024).
pEC50: −log10 of the molar value. Where two headings read alike, the source gives them in different places.

System: RS4;11 cells
Test: RS4;11 cell viability assay (CellTiter Glo);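 also: acute lymphoblastic leukemia line RS4,11, EC50 derived from percentage of viable cells after treatment relative to untreated controls, cell killing taken as a measure of Bcl-2 inhibition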
Format: cell-based, human
Details: 10% human serum, 48 hours, read-out: RS4, 11 EC50 Values
[1] = Homo sapiens, RS4-11, 48 h, 50,000 cells per well

Procedure: The acute lymphoblastic leukemia (ALL) cell line RS4;11 was used as the primary human cell line to assess the cellular activity of Bcl-2 selective agents in vitro and their efficacy in vivo.
Cell cytotoxicity EC50 values were assessed using CellTiter Glo (Promega) according to the manufacturer's recommendations. The EC50 values were determined as a percentage of viable cells following treatment compared to the untreated control cells.

SMILES | pEC50 (50,000 cells per well) | pEC50 [1]
CC1(C)CCC(CN2CCN(c3ccc(C(=O)NS(=O)(=O)c4cnc(OC[C@]5(F)CC[C@@](C)(O)CC5)c(Cl)c4)c(Oc4cnc5[nH]ccc5c4)c3)CC2)=C(c2ccc(Cl)cc2)C1 [Example 355, N-({5-chloro-6-[(trans-1-fluoro-4-hydroxy-4-methylcyclohexyl)methoxy]pyridin-3-yl}sulfonyl)-4-(4-{[2-(4-chlorophenyl)-4,4-dimethylcyclohex-1-en-1-yl]methyl}piperazin-1-yl)-2-(1H-pyrrolo[2,3-b]pyridin-5-yloxy)benzamide] | 7.73 | –
CC1(C)CCC(CN2CCN(c3ccc(C(=O)NS(=O)(=O)c4cnc(N[C@H]5CC[C@H](N6CCOCC6)CC5)c(C#N)c4)c(Oc4cnc5[nH]ccc5c4)c3)CC2)=C(c2ccc(Cl)cc2)C1 [Example 109, Trans-4-(4-{[2-(4-chlorophenyl)-4,4-dimethylcyclohex-1-en-1-yl]methyl}piperazin-1-yl)-N-({5-cyano-6-[(4-morpholin-4-ylcyclohexyl)amino]pyridin-3-yl}sulfonyl)-2-(1H-pyrrolo[2,3-b]pyridin-5-yloxy)benzamide] | – | 6.74
CC1(C)CCC(CN2CCN(c3ccc(C(=O)NS(=O)(=O)c4ccc(NCC5CCC(F)(F)CC5)c([N+](=O)[O-])c4)c(Oc4cnc5[nH]ccc5c4)c3)CC2)=C(c2ccc(Cl)cc2)C1 [Example 239, 4-(4-{[2-(4-chlorophenyl)-4,4-dimethylcyclohex-1-en-1-yl]methyl}piperazin-1-yl)-N-[(4-{[(4,4-difluorocyclohexyl)methyl]amino}-3-nitrophenyl)sulfonyl]-2-(1H-pyrrolo[2,3-b]pyridin-5-yloxy)benzamide] | – | 7.63
COc1ccc(CNc2ccc(S(=O)(=O)NC(=O)c3ccc(N4CCN(CC5=C(c6ccc(Cl)cc6)CC(C)(C)CC5)CC4)cc3Oc3cnc4[nH]ccc4c3)cc2[N+](=O)[O-])cc1 [Example 174, 4-(4-{[2-(4-chlorophenyl)-4,4-dimethylcyclohex-1-en-1-yl]methyl}piperazin-1-yl)-N-({4-[(4-methoxybenzyl)amino]-3-nitrophenyl}sulfonyl)-2-(1H-pyrrolo[2,3-b]pyridin-5-yloxy)benzamide] | – | 6.90
CC1(C)CCC(CN2CCN(c3ccc(C(=O)NS(=O)(=O)c4ccc(NCC56CC7CC(C5)C(O)C(C7)C6)c([N+](=O)[O-])c4)c(Oc4cnc5[nH]ccc5c4)c3)CC2)=C(c2ccc(Cl)cc2)C1 (stereo not drawn) [Example 200, 4-(4-{[2-(4-chlorophenyl)-4,4-dimethylcyclohex-1-en-1-yl]methyl}piperazin-1-yl)-N-{[4-({[(Z)-4-hydroxy-1-adamantyl]methyl}amino)-3-nitrophenyl]sulfonyl}-2-(1H-pyrrolo[2,3-b]pyridin-5-yloxy)benzamide] | 7.96 | –
CC1(C)CCC(CN2CCN(c3ccc(C(=O)NS(=O)(=O)c4ccc(NCC5CCCN(S(C)(=O)=O)C5)c([N+](=O)[O-])c4)c(Oc4cnc5[nH]ccc5c4)c3)CC2)=C(c2ccc(Cl)cc2)C1 (stereo not drawn) [Example 147, 4-(4-{[2-(4-chlorophenyl)-4,4-dimethylcyclohex-1-en-1-yl]methyl}piperazin-1-yl)-N-{[4-({[1-(methylsulfonyl)piperidin-3-yl]methyl}amino)-3-nitrophenyl]sulfonyl}-2-(1H-pyrrolo[2,3-b]pyridin-5-yloxy)benzamide] | – | 7.58
CC1(C)CCC(CN2CCN(c3ccc(C(=O)NS(=O)(=O)c4ccc(N[C@H]5CCCN(C6CCOCC6)C5)c([N+](=O)[O-])c4)c(Oc4cnc5[nH]ccc5c4)c3)CC2)=C(c2ccc(Cl)cc2)C1 [Example 105, 4-(4-{[2-(4-chlorophenyl)-4,4-dimethylcyclohex-1-en-1-yl]methyl}piperazin-1-yl)-N-[(3-nitro-4-{[(3S)-1-tetrahydro-2H-pyran-4-ylpiperidin-3-yl]amino}phenyl)sulfonyl]-2-(1H-pyrrolo[2,3-b]pyridin-5-yloxy)benzamide] | – | 7.27
CC1(C)CCC(CN2CCN(c3ccc(C(=O)NS(=O)(=O)c4ccc(NCC5CCCN(CC#N)C5)c([N+](=O)[O-])c4)c(Oc4cnc5[nH]ccc5c4)c3)CC2)=C(c2ccc(Cl)cc2)C1 (stereo not drawn) [Example 229, 4-(4-{[2-(4-chlorophenyl)-4,4-dimethylcyclohex-1-en-1-yl]methyl}piperazin-1-yl)-N-{[4-({[1-(cyanomethyl)piperidin-3-yl]methyl}amino)-3-nitrophenyl]sulfonyl}-2-(1H-pyrrolo[2,3-b]pyridin-5-yloxy)benzamide] | – | < 6.00
CC(C)c1cc(S(=O)(=O)NC(=O)c2ccc(N3CCN(CC4=C(c5ccc(Cl)cc5)CC(C)(C)CC4)CC3)cc2Oc2cnc3[nH]ccc3c2)cnc1OCC1CCOCC1 [Example 85, 4-(4-{[2-(4-chlorophenyl)-4,4-dimethylcyclohex-1-en-1-yl]methyl}piperazin-1-yl)-N-{[5-isopropyl-6-(tetrahydro-2H-pyran-4-ylmethoxy)pyridin-3-yl]sulfonyl}-2-(1H-pyrrolo[2,3-b]pyridin-5-yloxy)benzamide] | – | 5.71
COCCOCCN1CC[C@@H](Nc2ccc(S(=O)(=O)NC(=O)c3ccc(N4CCN(CC5=C(c6ccc(Cl)cc6)CC(C)(C)CC5)CC4)cc3Oc3cnc4[nH]ccc4c3)cc2[N+](=O)[O-])C1 [Example 254, 4-(4-{[2-(4-chlorophenyl)-4,4-dimethylcyclohex-1-en-1-yl]methyl}piperazin-1-yl)-N-{[4-({(3R)-1-[2-(2-methoxyethoxy)ethyl]pyrrolidin-3-yl}amino)-3-nitrophenyl]sulfonyl}-2-(1H-pyrrolo[2,3-b]pyridin-5-yloxy)benzamide] | – | 7.70
COC1(Cc2ccccc2-c2ccc(Cl)cc2)CCN(c2ccc(C(=O)NS(=O)(=O)c3cnc(OCC4(F)CCOCC4)c(Cl)c3)c(Oc3cnc4[nH]ccc4c3)c2)CC1 [Example 263, 4-{4-[(4′-chlorobiphenyl-2-yl)methyl]-4-methoxypiperidin-1-yl}-N-({5-chloro-6-[(4-fluorotetrahydro-2H-pyran-4-yl)methoxy]pyridin-3-yl}sulfonyl)-2-(1H-pyrrolo[2,3-b]pyridin-5-yloxy)benzamide] | – | < 6.00
O=C(NS(=O)(=O)c1ccc(OCC2(F)CCOCC2)c([N+](=O)[O-])c1)c1ccc(N2CCN(CC3=C(c4ccc(Cl)cc4)CCC4(CCCC4)C3)CC2)cc1Oc1cnc2[nH]ccc2c1 [Example 73, 4-(4-{[8-(4-chlorophenyl)spiro[4.5]dec-7-en-7-yl]methyl}piperazin-1-yl)-N-({4-[(4-fluorotetrahydro-2H-pyran-4-yl)methoxy]-3-nitrophenyl}sulfonyl)-2-(1H-pyrrolo[2,3-b]pyridin-5-yloxy)benzamide] | – | 7.63
CC1(C)CCC(CN2CCN(c3ccc(C(=O)NS(=O)(=O)c4ccc(NC5CCN([C@H]6CCOC[C@H]6F)CC5)c([N+](=O)[O-])c4)c(Oc4cnc5[nH]ccc5c4)c3)CC2)=C(c2ccc(Cl)cc2)C1 (relative stereo) [Example 115, 4-(4-{[2-(4-chlorophenyl)-4,4-dimethylcyclohex-1-en-1-yl]methyl}piperazin-1-yl)-N-{[4-({1-[cis-3-fluorotetrahydro-2H-pyran-4-yl]piperidin-4-yl}amino)-3-nitrophenyl]sulfonyl}-2-(1H-pyrrolo[2,3-b]pyridin-5-yloxy)benzamide] | – | 7.93
CC1(C)CC(c2ccc(Cl)cc2)=C(CN2CCN(c3ccc(C(=O)NS(=O)(=O)c4ccc(NCC5CCOCC5)c(S(=O)(=O)C(F)(F)F)c4)c(Oc4cnc5[nH]ccc5c4)c3)CC2)CO1 [Example 43, 4-(4-{[4-(4-chlorophenyl)-6,6-dimethyl-5,6-dihydro-2H-pyran-3-yl]methyl}piperazin-1-yl)-2-(1H-pyrrolo[2,3-b]pyridin-5-yloxy)-N-({4-[(tetrahydro-2H-pyran-4-ylmethyl)amino]-3-[(trifluoromethyl)sulfonyl]phenyl}sulfonyl)benzamide] | – | 6.57
CC(=O)N1CCOC(CNc2ccc(S(=O)(=O)NC(=O)c3ccc(N4CCN(CC5=C(c6ccc(Cl)cc6)CC(C)(C)CC5)CC4)cc3Oc3cnc4[nH]ccc4c3)cc2[N+](=O)[O-])C1 (stereo not drawn) [Example 136, N-[(4-{[(4-acetylmorpholin-2-yl)methyl]amino}-3-nitrophenyl)sulfonyl]-4-(4-{[2-(4-chlorophenyl)-4,4-dimethylcyclohex-1-en-1-yl]methyl}piperazin-1-yl)-2-(1H-pyrrolo[2,3-b]pyridin-5-yloxy)benzamide] | – | 8.53
O=C(NS(=O)(=O)c1ccc(NCC2CCOCC2)c([N+](=O)[O-])c1)c1ccc(N2CCN(CC3=C(c4ccc(Cl)cc4)CCC4(CCCC4)C3)CC2)cc1Oc1cnc2[nH]ccc2c1 [Example 79, 4-(4-{[8-(4-chlorophenyl)spiro[4.5]dec-7-en-7-yl]methyl}piperazin-1-yl)-N-({3-nitro-4-[(tetrahydro-2H-pyran-4-ylmethyl)amino]phenyl}sulfonyl)-2-(1H-pyrrolo[2,3-b]pyridin-5-yloxy)benzamide] | – | 7.19
CC1(C)CCC(CN2CCN(c3ccc(C(=O)NS(=O)(=O)c4ccc(NCC5CN(C6COC6)CCO5)c(S(=O)(=O)C(F)(F)F)c4)c(Oc4cnc5[nH]ccc5c4)c3)CC2)=C(c2ccc(Cl)cc2)C1 (stereo not drawn) [Example 241, 4-(4-{[2-(4-chlorophenyl)-4,4-dimethylcyclohex-1-en-1-yl]methyl}piperazin-1-yl)-N-({4-({[4-(oxetan-3-yl)morpholin-2-yl]methyl}amino)-3-[(trifluoromethyl)sulfonyl]phenyl}sulfonyl)-2-(1H-pyrrolo[2,3-b]pyridin-5-yloxy)benzamide] | – | 6.94
CC1(C)CCC(CN2CCN(c3ccc(C(=O)NS(=O)(=O)c4cnc(OC[C@H]5CC[C@H](O)CC5)c(Cl)c4)c(Oc4cnc5[nH]ccc5c4)c3)CC2)=C(c2ccc(Cl)cc2)C1 [Example 298, N-({5-chloro-6-[(trans-4-hydroxycyclohexyl)methoxy]pyridin-3-yl}sulfonyl)-4-(4-{[2-(4-chlorophenyl)-4,4-dimethylcyclohex-1-en-1-yl]methyl}piperazin-1-yl)-2-(1H-pyrrolo[2,3-b]pyridin-5-yloxy)benzamide] | – | 7.15
